How the values were obtained:
Assay in all cases: CCK-8 cell proliferation/cytotoxicity assay
Format in all cases: cell-based
AML12 normal liver cells = details: Mus musculus, AML12, 24 h, 24 h treatment
Description: (§1) Cell proliferation was detected using the Cell Counting Kit-8 (CCK-8, Cat. CK04-13; Dojindo Laboratories, Kumamoto, Japan) according to the manufacturer’s instruction. To evaluate cytotoxicity, cells were seeded in a 96-well plate (FHC, 1 × 10^4 cells/well; Caki-2, PLC/PFR.5, and MCF 10A, 1 × 10^4 cells/well; AML12, HepG2, Hep3B, and Huh-7 1.2 × 10^4 cells/well; HeLa, HEK-293, A549, and PC-3, 1.5 × 10^4 cells/well; HT-29, MCF-7, C6, and NE-4C, 2 × 10^4 cells/well). After attachment and stabilization of cells for 24 h, the medium was switched with fresh containing various concentrations (0, 1, 5, 10, 25, 50, and 100 μM) of MBP-11901, and cells were incubated for 22 h. Next, CCK-8 solution was added to each well, and cells were incubated for another 2 h. Absorbance was then measured at 450 nm using a microplate reader (SpectraMax i3, Molecular Devices, San Jose, CA, USA). The IC50 and log IC50 values were calculated using GraphPad Prism (version 5.02; GraphPad PRISM software Inc. San Diego, CA, USA). All experiments were independently performed 3 times. The graph of log IC50 values represents average values.

Hep3B = details: Homo sapiens, 24 h treatment
Description: as §1

HepG2 = details: Homo sapiens; HepG2, 24 h treatment
Description: as §1

Huh-7 = details: Homo sapiens; Huh-7, 24 h treatment
Description: as §1

PLC/PRF5 = details: Homo sapiens, PLC-PRF-5; PLC/PRF5, 24 h treatment
Description: as §1

CNC(=O)c1cc(Oc2ccc(NC(=O)Nc3ccc(Cl)c(C(F)(F)F)c3)cc2)ccn1 [sorafenib, reference compound]
IC50 (AML12 normal liver cells): 13.4 ± 2.77 µM | IC50 (Hep3B): 3.64 ± 0.99 µM | IC50 (HepG2): 3.85 ± 0.14 µM | IC50 (Huh-7): 6.47 ± 0.88 µM | IC50 (PLC/PRF5): 6.81 ± 0.76 µM
